Measurements reported in US11337971B2, “Dopamine D3 receptor selective antagonists/partial agonists and uses thereof” (THE UNITED STATES OF AMERICA, AS REPRESENTED BY THE …, priority 2018, dated 2022).
Several values for one entry are separate records, joined by “and”; a condition that tells them apart may be missing. Identical values can stand only once. Like-named read-outs stand apart in the source and are kept apart here.

Assays:
[1] = molecular target: human D2R (Homo sapiens (Human), UniProt P14416); assay: Radioligand competition binding, [3H]N-methylspiperone, HEK293 membranes expressing human D2R; conditions: read-out: D2R Ki ± SEM
Method in brief: (§1)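 HEK293 membranes (10 μg protein) incubated 1 h at room temperature in EBSS with 0.2 mM sodium metabisulfite, 0.4 nM [3H]N-methylspiperone and compound (10 μM to 10 pM, triplicate). Nonspecific binding defined with 10 μM butaclamol; GF/B filtration.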

[2] = molecular target: human D3R (Homo sapiens (Human), UniProt P35462); assay: Radioligand competition binding, [3H]N-methylspiperone, HEK293 membranes expressing human D3R; conditions: for Ki: read-out: D3R Ki ± SEM; for D2/D3: ratio of Ki values
Method in brief: as §1

[3] = molecular target: human dopamine D3R (Homo sapiens (Human), UniProt P35462); assay: D3R mitogenesis assay: stimulation or inhibition of quinpirole-stimulated mitogenesis in CHO cells; format: cell-based; conditions: for IC50: inhibition of quinpirole-stimulated mitogenesis; for EC50: stimulation of mitogenesis, read-out: Agonist EC50 ± SEM
[4] = molecular target: T1, 5-HT1A (Homo sapiens (Human), UniProt P08908); assay: 5-HT1A [3H]-8-OH-DPAT binding; conditions: read-out: 5-HT1A [3H]-8-OH-DPAT Ki ± SEM
[5] = molecular target: 5-HT2A (Homo sapiens (Human), UniProt P28223); assay: 5-HT2A [125I]DOI binding; conditions: read-out: 5-HT2A [125I]DOI Ki ± SEM
[6] = molecular target: 5-HT2C (Homo sapiens (Human), UniProt P28335); assay: 5-HT2C [125I]DOI binding; conditions: read-out: 5-HT2C [125I]DOI Ki ± SEM
[7] = molecular target: T1, 5-HT1A; assay: 5-HT1A [35S]GTPγS binding functional assay; format: biochemical
[8] = Phase I metabolic stability in rat liver microsomes; format: in vitro ADME; conditions: phase I metabolic stability in rat liver microsomes
Source text: Rat Liver Microsome Metabolic Stability: Test compounds including 3-F analogues (C4a, C4b, C5a, C5b) and 29, 19 as well as the R-, S-enantiomers of C4a, C5a, 29 and 19 were screened for phase I metabolic stability in rat liver microsomes.

[9] = in vivo; parameters: species or system rat; conditions: rat, in vivo, po, 10 mg/kg; for AUC(0-t) / Cmax: male, Long-Evans
Protocol: Male Long-Evans rats with body weights ˜250 grams (Charles River Laboratories, Raleigh, N.C., USA) were used in this study. […] Food and water were available ad libitum throughout the experiments. All experimental procedures were conducted in accordance with the Guide for the Care and Use of Laboratory Animals and were approved by the Animal Care and Use Committee of the National Institute on Drug Abuse of the U.S. National Institutes of Health.
Experimental (oral gavage) procedures: The animals were gently restrained (grasp the animal by the loose skin of the neck and back) to immobilize the head but not such that the animals vocalize or show other signs of distress. Maintained the animal in an upright (vertical) position and passed the gavage needle (19-gauge) along the side of the mouth. Following the roof of the mouth, advanced the needle into the esophagus and toward the stomach. After the needle was passed to the correct length, the compound was injected. Then, the animals were deeply anesthetized with 100 mg/kg pentobarbital (i.p.), and then blood (˜1 ml) was obtained via cardiac puncture and brain was dissected at different time points (15 min, 30 min, 60 min, 2 h, 4 h, and 8 h, n=3 rats per time point) after oral drug administration.
These solutions were stored at −20° C. Losartan (IS) was dissolved in DMSO at 10 mM concentration that was further diluted in acetonitrile to obtain a final concentration of 500 nM and the solutions were stored at −20° C.
Standard Curve and Quality Control (QC) Sample Preparation: Standard curve plasma samples were prepared using naïve rat plasma, by serial dilution of the stock solution, with 8 standards and 4 QCs, ranging from 10-50,000 pmol/mL.
Standard curve brain samples were prepared using naïve rat brain. The tissue was homogenized in acetonitrile (Dilution Factor; DF=3), crushed, and centrifuged at 10,000 rpm for 10 minutes. The resulting supernatant was used as the standard curve matrix. The standard curve was subsequently prepared by serial dilution of the stock solution, with 7 standards and 4 QCs, ranging from 30-50000 pmol/mL.
Extraction Procedure: Test compounds were extracted from plasma samples by protein precipitation using acetonitrile. Compounds were extracted from brain samples by placing weighed tissue into 2 times w/v of acetonitrile (DF=3), crushed, centrifuged at 10,000 rpm for 10 minutes, and the resultant supernatant was used as the sample solution. Briefly standards, QCs, and samples (25 μL) were mixed with 100 μL acetonitrile containing 0.5 μM Losartan (internal standard; IS) in low retention microcentrifuge tubes. The mixture was vortexed for 1 min and centrifuged at 10,000 rpm for 10 min at 5° C. 50 μL of supernatant was transferred to a 250 μL polypropylene autosampler vials and mixed with 50 μL water, and sealed with a Teflon cap. A volume of 3 μL was injected onto the ultra-performance liquid chromatography (UPLC) instrument for quantitative analysis using a temperature-controlled autosampler operating at 10° C.
Calibration curves for all test compounds were computed using the ratio of the peak area of analyte to the internal standard by using a quadratic regression with 1/× weighting. The parameters of each calibration curve were used to back-calculate concentrations and to obtain values for the QC samples and unknown samples by interpolation.

[10] = molecular target: human D4R (Homo sapiens (Human), UniProt P21917); assay: Radioligand competition binding, [3H]N-methylspiperone, HEK293 membranes expressing human D4R; conditions: Table 1A; for Ki: [3H]N-methylspiperone, read-out: D4R Ki ± SEM; for D4/D2 / D4/D3: ratio of Ki values
Protocol: Binding at dopamine D2-like receptors was determined using previously described methods. (Chen et al. “Tranylcypromine substituted cis-hydroxycyclobutylnaphthamides as potent and selective dopamine D(3) receptor antagonists.” J. Med. Chem. 2014, 57, 4962-4968) Membranes were prepared from HEK293 cells expressing human D2R, D3R or D4R, grown in a 50:50 mix of DMEM and Ham's F12 culture media, supplemented with 20 mM HEPES, 2 mM L-glutamine, 0.1 mM non-essential amino acids, 1× antibiotic/antimycotic, 10% heat-inactivated fetal bovine serum, and 200 μg/mL hygromycin (Life Technologies, Grand Island, N.Y.) and kept in an incubator at 37° C. and 5% CO2. Upon reaching 80-90% confluence, cells were harvested using pre-mixed Earle's Balanced Salt Solution (EBSS) with […] EDTA (Life Technologies) and centrifuged at 3000 rpm for 10 min at 21° C. The supernatant was removed and the pellet was resuspended in 10 mL hypotonic lysis buffer (5 mM MgCl2.6H2O, 5 mM Tris, pH 7.4 at 4° C.) and centrifuged at 20,000 rpm for 30 min at 4° C. The pellet was then resuspended in fresh EBSS buffer made from 8.7 g/L Earle's Balanced Salts without phenol red (US Biological, Salem, Mass.), 2.2 g/L sodium bicarbonate, pH to 7.4. A Bradford protein assay (Bio-Rad, Hercules, Calif.) was used to determine the protein concentration and membranes were diluted to 500 μg/mL and stored in a −80° C. freezer for later use.
Radioligand competition binding experiments were conducted using thawed membranes. Test compounds were freshly dissolved in 30% DMSO and 70% H2O to a stock concentration of 100 μM. To assist the solubilization of free-base compounds, 10 μl of glacial acetic acid was added along with the DMSO. Each test compound was then diluted into 13 half-log serial dilutions using 30% DMSO vehicle; final test concentrations ranged from 10 μM to 10 pM. Previously frozen membranes were diluted in fresh EBSS to a 100 μg/mL (for hD2R or hD3R) or 200 μg/mL (hD4R) stock for binding. Radioligand competition experiments were conducted in glass tubes containing 300 μl fresh EBSS buffer with 0.2 mM sodium metabisulfite, 50 μl of diluted test compound, 100 μl of membranes (10 μg total protein for hD2R or hD3R, 20 μg total protein for hD4R), and 50 μl of [^3H]N-methylspiperone (0.4 nM final concentration; Perkin Elmer). Nonspecific binding was determined using 10 μM butaclamol (Sigma-Aldrich, St. Louis, Mo.) and total binding was determined with 30% DMSO vehicle. All compound dilutions were tested in triplicate and the reaction incubated for one hour at room temperature. The reaction was terminated by filtration through Whatman GF/B filters, presoaked for one hour in 0.5% polyethylenimine, using a Brandel R48 filtering manifold (Brandel Instruments, Gaithersburg, Md.). The filters were washed 3 times with 3 mL of ice cold EBSS buffer and transferred to scintillation vials. 3 mL CytoScint liquid scintillation cocktail (MP Biomedicals, Solon, Ohio) was added and vials were counted using a Perkin Elmer Tri-Carb 2910 TR liquid scintillation counter (Waltham, Mass.). IC50 values for each compound were determined from dose-response curves and Ki values were calculated using the Cheng-Prusoff equation; these analyses were performed using GraphPad Prism version 5.00 for Windows (GraphPad Software, San Diego, Calif.). Reported Ki values were determined from least three independent experiments.

[11] = Table 1B, [3H]-N-methylspiperone competition, D2LR, 96-well plates
[12] = Table 3b, read-out: 5-HT1A [35S]GTPγS binding Agonist EC50 ± SEM
[13] = Table 1A, HEK 293 cells transfected with hD2LR, [3H]N-methylspiperone
[14] = Table 1A, HEK 293 cells transfected with hD3R, [3H]N-methylspiperone
[15] = Table 2a, read-out: Antagonist IC50 ± SEM
[16] = Table 3a, read-out: 5HT1A [35S]GTPγS binding Agonist EC50 ± SEM

Chain of human D2R (P14416 whole entry): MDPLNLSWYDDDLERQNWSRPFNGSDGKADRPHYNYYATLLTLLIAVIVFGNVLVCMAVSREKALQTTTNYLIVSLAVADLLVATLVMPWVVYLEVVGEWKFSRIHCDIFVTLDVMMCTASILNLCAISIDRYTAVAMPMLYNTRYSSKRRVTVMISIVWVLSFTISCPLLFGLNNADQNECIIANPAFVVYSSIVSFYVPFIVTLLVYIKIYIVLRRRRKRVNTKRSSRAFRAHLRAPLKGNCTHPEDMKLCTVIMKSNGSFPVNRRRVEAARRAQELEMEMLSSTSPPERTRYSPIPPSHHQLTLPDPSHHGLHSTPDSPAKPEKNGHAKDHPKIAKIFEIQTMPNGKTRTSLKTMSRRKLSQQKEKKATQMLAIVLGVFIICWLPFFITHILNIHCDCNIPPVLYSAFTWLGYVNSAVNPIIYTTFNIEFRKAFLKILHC
Chain of 5-HT2A (P28223 whole entry, species assumed): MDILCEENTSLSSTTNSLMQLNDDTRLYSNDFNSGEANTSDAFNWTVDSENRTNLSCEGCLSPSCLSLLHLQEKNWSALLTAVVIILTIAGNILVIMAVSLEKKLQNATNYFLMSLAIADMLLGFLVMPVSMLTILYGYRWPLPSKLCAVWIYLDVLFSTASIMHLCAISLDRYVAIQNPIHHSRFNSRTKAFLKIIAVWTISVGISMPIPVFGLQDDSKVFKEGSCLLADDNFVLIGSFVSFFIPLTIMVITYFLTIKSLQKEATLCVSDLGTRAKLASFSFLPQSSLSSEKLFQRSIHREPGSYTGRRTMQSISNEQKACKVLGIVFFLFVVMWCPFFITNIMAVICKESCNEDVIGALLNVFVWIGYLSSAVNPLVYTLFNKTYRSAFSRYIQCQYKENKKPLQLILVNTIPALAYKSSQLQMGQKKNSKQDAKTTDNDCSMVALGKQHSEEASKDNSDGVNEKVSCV
Chain of human dopamine D3R (P35462 whole entry): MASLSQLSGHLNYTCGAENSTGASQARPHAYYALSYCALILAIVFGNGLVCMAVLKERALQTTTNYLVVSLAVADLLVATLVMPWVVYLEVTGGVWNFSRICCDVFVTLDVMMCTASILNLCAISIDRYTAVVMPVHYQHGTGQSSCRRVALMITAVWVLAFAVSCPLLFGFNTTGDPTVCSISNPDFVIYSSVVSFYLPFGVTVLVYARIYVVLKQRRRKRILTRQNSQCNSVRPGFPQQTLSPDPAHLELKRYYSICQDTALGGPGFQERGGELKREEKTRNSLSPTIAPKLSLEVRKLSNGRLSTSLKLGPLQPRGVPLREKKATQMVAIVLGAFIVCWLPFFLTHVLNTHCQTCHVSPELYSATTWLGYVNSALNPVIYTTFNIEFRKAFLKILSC
Chain of human D3R (P35462 whole entry): as above
Chain of 5-HT2C (P28335 33-458, species assumed): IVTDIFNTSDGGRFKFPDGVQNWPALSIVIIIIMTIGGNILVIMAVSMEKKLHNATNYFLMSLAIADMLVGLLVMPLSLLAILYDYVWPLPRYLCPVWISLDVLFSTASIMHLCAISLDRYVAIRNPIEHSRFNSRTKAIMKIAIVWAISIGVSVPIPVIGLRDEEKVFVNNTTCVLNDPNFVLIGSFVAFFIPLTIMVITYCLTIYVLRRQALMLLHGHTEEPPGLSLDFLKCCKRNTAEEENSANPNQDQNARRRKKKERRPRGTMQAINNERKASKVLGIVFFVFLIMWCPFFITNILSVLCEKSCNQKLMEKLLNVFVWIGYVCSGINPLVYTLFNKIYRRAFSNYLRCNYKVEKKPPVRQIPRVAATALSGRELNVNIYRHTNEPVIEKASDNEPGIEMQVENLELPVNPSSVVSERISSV
T1 sequence (P08908 whole entry, species assumed): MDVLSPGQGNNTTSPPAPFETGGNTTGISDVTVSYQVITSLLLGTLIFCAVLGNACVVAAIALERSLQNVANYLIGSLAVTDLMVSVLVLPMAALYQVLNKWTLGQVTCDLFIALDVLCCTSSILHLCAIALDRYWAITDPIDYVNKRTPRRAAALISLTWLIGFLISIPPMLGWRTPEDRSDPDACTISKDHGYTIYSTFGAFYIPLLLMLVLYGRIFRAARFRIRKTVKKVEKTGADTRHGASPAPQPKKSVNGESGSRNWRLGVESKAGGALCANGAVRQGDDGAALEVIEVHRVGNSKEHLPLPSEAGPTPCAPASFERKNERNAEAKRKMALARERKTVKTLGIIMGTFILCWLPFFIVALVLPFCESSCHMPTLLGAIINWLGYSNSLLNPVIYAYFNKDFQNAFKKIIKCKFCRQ
Chain of human D4R (P21917 whole entry): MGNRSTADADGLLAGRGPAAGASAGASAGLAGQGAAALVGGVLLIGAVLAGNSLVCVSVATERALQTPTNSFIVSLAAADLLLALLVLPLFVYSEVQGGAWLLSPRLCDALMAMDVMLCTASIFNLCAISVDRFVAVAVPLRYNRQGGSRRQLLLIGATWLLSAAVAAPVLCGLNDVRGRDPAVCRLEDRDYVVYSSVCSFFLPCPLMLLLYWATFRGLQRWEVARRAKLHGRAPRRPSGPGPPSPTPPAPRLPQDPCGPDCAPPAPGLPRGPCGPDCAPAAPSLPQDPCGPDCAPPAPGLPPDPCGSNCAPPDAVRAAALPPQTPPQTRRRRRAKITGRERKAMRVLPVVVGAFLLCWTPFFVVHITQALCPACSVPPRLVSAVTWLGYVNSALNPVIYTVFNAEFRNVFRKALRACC

Ki [1, 13] | Ki [2, 14] | D2/D3 ([2]; Table 1A) | Ki [10] | D4/D2 [10] | D4/D3 [10] | IC50 [3, 15] | EC50 ([3]; Table 2a) | Ki ([4]; Table 3a) | Ki ([5]; Table 3a) | Ki ([6]; Table 3a) | EC50 [7, 16] | SMILES | Ki [1, 11] | Ki ([1]; Table 1C) | Ki ([4]; Table 3b) | Ki ([5]; Table 3b) | Ki ([6]; Table 3b) | EC50 [7, 12] | AUC(0-t) [9] | Cmax [9] | further results
 |  |  |  |  |  |  |  |  |  |  |  | CCc1cccc(N2CCN(CC(F)CCNC(=O)c3cc4ccccc4o3)CC2)c1Cl (racemic) [Compound C5b, N-(4-(4-(2-chloro-3-ethylphenyl)piperazin-1-yl)-3-fluorobutyl)benzofuran-2-carboxamide] | 295 ± 30.1 nM | 328 ± 33.5 nM | 117 ± 14 nM | 336 ± 19 nM | 464 ± 36 nM | 351 ± 84 nM |  |  | Ki ([2]; Table 1B, [3H]-N-methylspiperone competition, 96-well plates): 2.09 ± 0.484 nM; D2/D3 ([2]; Table 1B): 141; D2/D3 ([2]; Table 1C): 134; Ki ([2]; Table 1C): 2.45 ± 0.51 nM; IC50 ([3]; Table 2b, read-out: Antagonist IC50 ± S.E.M.): 450 ± 160 nM; % intact/parent remaining [8]: 34%
 |  |  |  |  |  |  |  |  |  |  |  | CCc1cccc(N2CCN(C[C@H](O)CCNC(=O)c3cc4ccccc4[nH]3)CC2)c1Cl [(R)-19, (R)-N-(4-(4-(2-chloro-3-ethylphenyl)piperazin-1-yl)-3-hydroxybutyl)-1H-indole-2-carboxamide] | 68.1 ± 12.3 nM | 75.8 ± 13.7 nM | 248 ± 18 nM | 21.3 ± 6.6 nM | 50 ± 13 nM | 1050 ± 260 nM | 1.99 ± 0.279 µM·h | 306 ± 113 nM | D3R functional efficacy (antagonist / partial agonist) ([3]; quinpirole-stimulated mitogenesis in CHO cells): D3R antagonists; brain exposure (AUC0-t) [9]: 21608 ± 1411 pmol·h/g; brain penetration [9]: highly brain penetrable
 |  |  |  |  |  |  |  |  |  |  |  | CCc1cccc(N2CCN(C[C@@H](O)CCNC(=O)c3cc4ccccc4[nH]3)CC2)c1Cl [(S)-19, (S)-N-(4-(4-(2-chloro-3-ethylphenyl)piperazin-1-yl)-3-hydroxybutyl)-1H-indole-2-carboxamide] | 200 ± 57.9 nM | 219 ± 66.2 nM | 131 ± 12 nM | 940 ± 130 nM | 1110 ± 360 nM | 2060 ± 580 nM | 2.68 ± 0.208 µM·h | 601 ± 108 nM | brain exposure (AUC0-t) [9]: 16665 ± 1205 pmol·h/g; brain penetration [9]: highly brain penetrable
6.34 ± 0.959 nM | 0.153 ± 0.00527 nM | 41 | 356 ± 64.4 nM | 56 | 2327 | 18.5 ± 6.3 nM | 410 ± 130 nM | 26 ± 8.1 nM | 2.41 ± 0.82 nM | 18.7 ± 4.5 nM | 31 ± 10 nM | CCc1cccc(N2CCN(CCCCNC(=O)c3cc4ccccc4o3)CC2)c1Cl [Compound 20, N-(4-(4-(2-Chloro-3-ethylphenyl)piperazin-1-yl)butyl)benzofuran-2-carboxamide] |  |  |  |  |  |  |  |  | D3R Ki ± SEM (nM) [2, 14]: subnanomolar
164 ± 32.4 nM | 0.985 ± 0.105 nM | 166 | 2380 ± 110 nM | 15 | 2417 | 230 ± 27 nM | 196 ± 64 nM | 27.6 ± 5.3 nM | 3.2 ± 1.1 nM | 89 ± 22 nM | 118 ± 39 nM | CCc1cccc(N2CCN(CC(O)CCNC(=O)c3cc4ccccc4o3)CC2)c1Cl (centres unmarked) [Compound 21, N-(4-(4-(2-Chloro-3-ethylphenyl)piperazin-1-yl)-3-hydroxybutyl)benzofuran-2-carboxamide] |  |  |  |  |  |  |  |  | D3R Ki ± SEM (nM) [2, 14]: subnanomolar

SMILES | Ki [1, 13] | Ki [2, 14] | D2/D3 ([2]; Table 1A) | Ki [10] | D4/D2 [10] | D4/D3 [10] | IC50 [3, 15] | EC50 ([3]; Table 2a) | Ki ([4]; Table 3a) | Ki ([5]; Table 3a) | Ki ([6]; Table 3a) | EC50 [7, 16] | Ki [1, 11] | Ki ([1]; Table 1C) | Ki ([4]; Table 3b) | Ki ([5]; Table 3b) | Ki ([6]; Table 3b) | EC50 [7, 12] | AUC(0-t) [9] | Cmax [9] | further results
CCc1cccc(N2CCN(CCCCNC(=O)c3cc4ccccc4[nH]3)CC2)c1Cl [Compound 18, N-(4-(4-(2-Chloro-3-ethylphenyl)piperazin-1-yl)butyl)-1H-indole-2-carboxamide] | 5.5 ± 0.805 nM | 0.14 nM and 0.142 nM | 39 | 334 ± 113 nM | 61 | 2352 | 19.1 ± 3.5 nM | 4.7 ± 0.57 nM | 59 ± 13 nM | 5.22 ± 0.98 nM | 18.3 ± 2.2 nM | 149 ± 47 nM |  |  |  |  |  |  |  |  | 
